For data set [1] the following is noted: 100 kPa, Liquid; for mass density: Vibrating tube method.
The nature of data set [2]: xn = mol fraction of the nth substance listed. Conditions: 100 kPa, Liquid, x2 = 0; for mass density: Vibrating tube method.

± gives the expanded uncertainty stated by the source.

Regarding `O` [water], the mass density in data set [1] (278.15 K) came out at 999.965 ± 0.11 kg/m3; in data set [1] (283.15 K), 999.698 ± 0.11 kg/m3; in data set [1] (323.15 K) it was 988.027 ± 0.11 kg/m3; in data set [1] (328.15 K) it was 985.682 ± 0.11 kg/m3; in data set [1] (333.15 K) it was 983.186 ± 0.11 kg/m3. The speed of sound in data set [1] (318.15 K, Pulse-echo method) was determined as 1536.7 ± 0.99 m/s.
With `O` [water] + OCCOCCOCCOCCO, the mass density in data set [2] (278.15 K) worked out at 999.965 ± 0.11 kg/m3; in data set [2] (283.15 K), 999.698 ± 0.11 kg/m3; in data set [2] (323.15 K) it was 988.027 ± 0.11 kg/m3; in data set [2] (328.15 K), 985.682 ± 0.11 kg/m3; in data set [2] (333.15 K) it was 983.186 ± 0.11 kg/m3. In addition, the speed of sound in data set [2] (318.15 K, Pulse-echo method) was determined as 1536.7 ± 0.99 m/s.

(Values after the NIST ThermoML archive (doi:10.1016/j.jct.2015.02.007).)
